Tests used:
Test in all cases: drug sensitivity score (DSS), CellTiter-Blue viability (DSS (AUC-based score)); higher = stronger viability inhibition; extreme values may be limits of the assay
Conditions in all cases: incubation time: 72 h
[1] = system: BT-474
Procedure: (§1)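 DSRT with the CellTiter-Blue (resazurin reduction) viability readout, fluorescence 560/590 nm, 72 h incubation. Plates were normalised to DMSO and benzethonium chloride controls. DSS is computed from the area under the fitted dose-response curve (5 or 9 concentrations).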

[2] = system: CAL-120
Procedure: as §1

[3] = system: CAL-148
Procedure: as §1

[4] = system: CAL-51
Procedure: as §1

[5] = system: CAL-85-1
Procedure: as §1

[6] = system: DU-4475
Procedure: as §1

[7] = system: HCC1143
Procedure: as §1

[8] = system: HCC1599
Procedure: as §1

[9] = system: HCC1937
Procedure: as §1

[10] = system: HDQ-P1
Procedure: as §1

[11] = system: Hs578T
Procedure: as §1

[12] = system: MDA-MB-231
Procedure: as §1

[13] = system: MDA-MB-436
Procedure: as §1

[14] = system: MDA-MB-453
Procedure: as §1

[15] = system: MDA-MB-468
Procedure: as §1

[16] = system: SK-BR-3
Procedure: as §1

| Compound | drug sensitivity score [1] | drug sensitivity score [2] | drug sensitivity score [3] | drug sensitivity score [4] | drug sensitivity score [5] | drug sensitivity score [6] | drug sensitivity score [7] | drug sensitivity score [8] | drug sensitivity score [9] | drug sensitivity score [10] | drug sensitivity score [11] | drug sensitivity score [12] | drug sensitivity score [13] | drug sensitivity score [14] | drug sensitivity score [15] | drug sensitivity score [16] |
| --- | --- | --- | --- | --- | --- | --- | --- | --- | --- | --- | --- | --- | --- | --- | --- | --- |
| Cc1c(N)nc([C@H](CC(N)=O)NC[C@H](N)C(N)=O)nc1C(=O)N[C@H](C(=O)N[C@H](C)[C@@H](O)[C@H](C)C(=O)N[C@H](C(=O)NCCc1nc(-c2nc(C(=O)NCCC[S+](C)C)cs2)cs1)[C@@H](C)O)[C@@H](OC1OC(CO)C(O)C(O)C1OC1OC(CO)C(O)C(OC(N)=O)C1O)c1cnc[nH]1 (stereo not given in full) [Bleomycin] | 0 | 3.15 | 0 | 0.892 | 0 | 0 | 9.95 | 0 | 9.75 | 0 | 11.3 | 6.41 | 4.58 | 0 | 0 | 0 |
| CC(C)C[C@H](NC(=O)[C@H](CCc1ccccc1)NC(=O)CN1CCOCC1)C(=O)N[C@@H](Cc1ccccc1)C(=O)N[C@@H](CC(C)C)C(=O)[C@@]1(C)CO1 [Carfilzomib] | 16.1 | 23.9 | 18.8 | 19.6 | 22.2 | 22.8 | 20.4 | 7.66 | 27 | 23.7 | 27.6 | 25.5 | 20.5 | 27.8 | 26.8 | 23.7 |
| Nc1nc(Cl)nc2c1ncn2[C@@H]1O[C@H](CO)[C@@H](O)[C@@H]1F [Clofarabine] | 0 | 11.6 | 11.3 | 11.1 | 10.1 | 13.3 | 9.25 | 2.01 | 15.5 | 0 | 7.51 | 12 | 11.8 | 9.02 | 12.5 | 15.3 |
| COc1cc2c(Oc3ccc(NC(=O)C4(C(=O)Nc5ccc(F)cc5)CC4)cc3F)ccnc2cc1OCCCN1CCOCC1 [Foretinib] | 0 | 1.14 | 2.11 | 4.07 | 0 | 1.75 | 0 | 0 | 0 | 4.98 | 0.649 | 0 | 3.35 | 0 | 0 | 0.269 |
| CC(C)C(=O)Nc1ccc([N+](=O)[O-])c(C(F)(F)F)c1 [Flutamide] | 0 | 0 | 0 | 0 | 0 | 0 | 0 | 0 | 0 | 0 | 0 | 0 | 0 | 0 | 0 | 0 |
| O=NN(CCCl)C(=O)NC1CCCCC1 [Lomustine] | 0 | 0 | 0 | 0 | 0 | 0 | 0 | 0 | 0 | 0 | 0 | 0 | 0 | 0 | 0 | 0 |
| COc1cc2c(N3CCN(C(=O)Nc4ccc(OC(C)C)cc4)CC3)ncnc2cc1OCCCN1CCCCC1 [Tandutinib] | 0 | 0 | 0.668 | 0 | 0 | 0 | 0 | 0 | 0 | 0 | 0 | 0 | 0 | 0 | 0 | 0 |
| C[C@]12C=CC(=O)C=C1CC[C@@H]1[C@@H]2C(=O)C[C@@]2(C)[C@H]1CC[C@]2(O)C(=O)CO [Prednisone] | 0 | 0 | 0 | 0 | 0 | 0 | 0 | 0 | 0 | 0 | 0 | 0 | 0 | 0 | 0 | 0 |
| O=C(c1cc(Cc2n[nH]c(=O)c3ccccc23)ccc1F)N1CCN(C(=O)C2CC2)CC1 [Olaparib] | 0 | 0 | 0 | 3.33 | 0 | 3.83 | 0 | 0 | 11.2 | 0 | 0 | 0 | 0 | 0 | 2.78 | 0.543 |
| O=C(O)CC[C@H]1CC[C@@](c2cc(F)ccc2F)(S(=O)(=O)c2ccc(Cl)cc2)CC1 [MK-0752] | 0 | 0 | 0 | 0 | 0 | 0 | 0 | 2.93 | 0 | 0 | 0 | 0 | 0 | 0 | 0 | 0 |
| CC[C@@H]1C(=O)N(C)c2cnc(Nc3ccc(C(=O)N[C@H]4CC[C@H](N5CCN(CC6CC6)CC5)CC4)cc3OC)nc2N1C(C)C [Volasertib] | 8.65 | 20.5 | 17.8 | 17.6 | 10.9 | 14.7 | 13.4 | 0 | 16.3 | 5.17 | 11.3 | 12.3 | 3.18 | 19.2 | 11.9 | 19.8 |
| CO[C@H]1C[C@@H]2CC[C@@H](C)[C@@](O)(O2)C(=O)C(=O)N2CCCC[C@H]2C(=O)O[C@H]([C@H](C)C[C@@H]2CC[C@@H](O)[C@H](OC)C2)CC(=O)[C@H](C)/C=C(\C)[C@@H](O)[C@@H](OC)C(=O)[C@H](C)C[C@H](C)/C=C/C=C/C=C/1C [Sirolimus] | 0 | 17.3 | 19.8 | 23.8 | 17 | 15 | 10.1 | 9.43 | 20.4 | 13.2 | 14.4 | 0 | 0 | 27.8 | 14.2 | 15.4 |
| CC/C(=C(\c1ccccc1)c1ccc(OCCN(C)C)cc1)c1ccccc1 [Tamoxifen] | 0 | 0 | 0 | 0 | 0 | 0 | 0 | 0 | 0 | 0 | 0 | 0 | 2.35 | 2.6 | 3.95 | 0 |
| CCN(CC)CCOc1ccc(C(=C(Cl)c2ccccc2)c2ccccc2)cc1 [Clomifene] | 2.94 | 3.83 | 0 | 0 | 1.08 | 1.29 | 0 | 0 | 1.23 | 1.07 | 0 | 5.53 | 2.07 | 3.38 | 4.91 | 0 |
| CN1CCN(c2nc(C3=C(c4c[nH]c5ccccc45)C(=O)NC3=O)c3ccccc3n2)CC1 [Sotrastaurin] | 0 | 0 | 0 | 0 | 0 | 0 | 0 | 0 | 0 | 0 | 0 | 0 | 0 | 0 | 0 | 0 |
